According to patent publication US8420100B2, “Tumor suppressor activating polypeptides and uses thereof” (Department of Biotechnology, priority 2006, dated 2013):

Legend:
[1] = system: B16F1 mouse melanoma cells; experiment: B16F1 melanoma tumor regression in nude mice; type: in vivo; conditions: nude mice, 200 μg/mouse thrice a week, 4 weeks
Procedure: P44 peptide: A potent tumor regressor: To test whether the differences in SMAR1 derived peptide-induced activation of p53 translated to differences in drug sensitivity in vivo, B16F1 mouse melanoma cells were subcutaneously grafted into athymic nude mice, and tumor growth together with therapeutic sensitivity was monitored. Once the tumor nodule was established into the mouse, P44 peptide was injected in the tumor localized areas at a physiological dose of 200 μg/mouse thrice a week. The treatment was continued for 4 weeks. In a parallel experiment, either TAT PTD or TAT-SMAR1 RS mutant peptide, SM (FIGS. 6A and B, respectively) was injected in tumor bearing mice to be used as control.
FIG. 6D-F corresponds to the magnified tumor images of FIG. 6A-C, respectively. […] Thus, P44 peptide mimics the function of full-length SMAR1 in drastically reducing the tumor growth.
FIG. 6. Tumor regression by TAT-SMAR1 WT peptide. A, Nude mice were allowed to develop tumors by subcutaneously injecting B 16F1 mouse melanoma cells. Mice with size-matched tumors were then randomized into three treatment groups (five animals per group); TAT PTD alone (panel A), TAT-SMART RS mutant (SM) (panel B) and TAT-SMAR1 WT (P44) (panel C). Panels D, E and F correspond to the magnified images of panels A, B and C, respectively. Mice were treated with either of the peptides at a dose of 200 μg/mice/thrice a week for consecutive 4 weeks. The tumors were then weighed and plotted for each mouse in all the treatment groups (panel G).
Animal model for tumorgenesis: B16F1 mouse melanoma cells in the exponential growth phase were trypsinized (Invitrogen) and washed twice with PBS. Cell number and viability was assessed and cell cultures with viability >90% were used. Tumors were then established in nude mice by subcutaneous injection of 2×10^6 B16F1 cells. Five mice were used in each set of experiments. The mice were maintained under pathogen-free conditions. When the subcutaneous tumor was clearly visible, the TAT-SMAR1 WT (P44) peptide treatment was started. The P44 peptide was subcutaneously injected proximal to the tumor sites at a dose of 200 μg/mouse thrice a week. The treatment was administered for 4 weeks. For control treatment, TAT PTD alone and TAT SMAR1 RS mutant peptide (SM) were injected in the same manner as the P44 peptide.

[2] = target: T1, p53 (serine-15 phosphorylation) (Homo sapiens, UniProt P04637); experiment: Western blotting for total p53 and phospho serine-15 p53 in peptide-treated HEK 293 cells; type: cell-based; conditions: HEK 293, TAT-PTD alone 50-100 μM
T1 construct: HEK 293 (p53^+/+) cells; endogenous in cells; host or cells: HEK 293
T1 sequence (P04637 whole entry): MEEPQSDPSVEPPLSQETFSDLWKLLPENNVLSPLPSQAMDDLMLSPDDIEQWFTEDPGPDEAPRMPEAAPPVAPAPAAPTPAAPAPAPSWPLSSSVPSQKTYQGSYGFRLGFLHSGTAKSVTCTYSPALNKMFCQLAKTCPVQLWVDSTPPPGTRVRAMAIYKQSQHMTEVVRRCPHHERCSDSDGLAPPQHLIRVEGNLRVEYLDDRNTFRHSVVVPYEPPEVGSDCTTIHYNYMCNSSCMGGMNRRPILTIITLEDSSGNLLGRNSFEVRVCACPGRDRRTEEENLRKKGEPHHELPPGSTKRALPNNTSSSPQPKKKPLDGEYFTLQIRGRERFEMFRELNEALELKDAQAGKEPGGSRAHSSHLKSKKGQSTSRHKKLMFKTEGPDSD
Procedure: P44 peptide controls the activity of cell cycle regulatory proteins: The minimal dose of P44 peptide that was functionally effective in activating p53 was evaluated by incubating HEK 293 cells with varying concentrations of P44 peptide (1-100 μM) (FIG. 3A) and after 12 h of incubation, protein lysates were prepared and processed for immunoblotting with total p53 (DO-1) and p53 ser-15 phospho-specific antibodies. […] However, there was a 4.5-fold increase in the expression of phosphorylated p53 (pSerine-15 p53) in P44 peptide-treated cells (FIG. 3A, lanes 2-6). To exclude the possibility that p53 activation is an effect of the protein transduction domain of HIV-1 TAT protein, similar set of experiment was performed using TAT-PTD peptide alone (consisting of only the 11-mer TAT-sequence). […] This observation reconfirmed that the RS domain (288-350 aa) of SMAR1 could exclusively activate p53 by mediating its phosphorylation specifically at serine-15 residue. Serine-15 phosphorylation of p53 is associated with its increased transcription efficiency, decreased affinity for MDM2, and its increased nuclear retention. One of the target genes activated by p53 is p21, an inhibitor of a subset of the cyclin-dependent kinases including cdc-2 (Sherr, C. J., and Roberts, J. M. (1999) Genes Dev. 13, 1501-1512). To evaluate the significance of peptide-mediated p53 activation, P44 peptide-treated lysates were further checked for tyrosine 15 phosphorylation of cdc2. […] HEK 293 cells were treated with SM peptide and checked for p53 as well as pcdc-2 levels.
Serine 347 residue of SMAR1: critical for mediating the effects of full-length SMAR1: Once it was established that the serine motif (SSSSYS) plays a pivotal role in SMAR1-mediated p53 activation, it got necessary to identify the serine residue within this motif that might be necessary in mediating these effects. To identify the critical serine residue within P44 peptide, various point-mutant peptides were custom synthesized, that varied with respect to the position of serine residue that was mutated (Table 1). To evaluate the functionality of mutant chimeric TAT-SMAR1 peptides [PS347A, PS348A, PS349A, PS350A and RS mutant (SM)] in comparison to the TAT-SMAR1 WT peptide (P44), HEK 293 cells were treated with 10 μM concentration of either of the peptides and protein lysates were prepared after 12 h incubation period. The lysates were then processed for immunoblotting with pSer-15 p53 and pcdc-2 antibodies. […] However, this was not the case with other mutated peptides. When the alanine was replaced back to serine at the 347 residue (FIG. 4A, lanes 3-5), the functionality of the peptide was restored as observed with increase in pcdc-2 levels. […] However, in case of SM (where serine residues from 347-350 were replaced by alanines) treated cells (FIG. 4A, lane 7), there was no difference in the pSer-15 p53 as well as pcdc-2 levels compared to either untreated or PS347A treated cells (FIG. 4A, lanes 1 and 2, respectively).
FIG. 3. P44 peptide activates p53-mediated cell cycle pathway. A, HEK 293 cells were seeded at a density of 5×10^5 and after 24 h, was incubated with increasing concentrations of the TAT-SMAR1 WT (P44) peptide. Protein lysates were prepared and then immunoblotted with antibodies to total p53, phospho serine-15. B, The same set of experiment was repeated with TAT PTD peptide representing the PTD carrier sequence alone and immunoblotted with phospho serine-15, in comparison of P44 treated cells. C, The status of phospho cdc-2 was further analyzed in P44 peptide treated cells. Total […] was used as an internal control. D, The same set of experiments were again repeated using TAT-SMAR1 RS mutant (SM) peptide and whole cell lysates were probed for phospho p53 serine-15 and pcdc-2 antibodies. […] was used as a loading control.
FIG. 4. Serine 347 residue of SMAR1 mediates p53 activation and stabilization. […]

[3] = system: tumor vasculature of B16F1-induced tumors; experiment: Hematoxylin and eosin histopathology of B16F1-induced tumors; type: in vivo, mouse; conditions: tumors excised from treated mice
Excerpt: (§1) Histopathological changes in the subcutaneous tumors: To analyze the tumor vasculature of TAT PTD, SM treated and P44 treated mice, the tumor sections were stained with HE. […] In SM treated tumors, due to compressed vessels, the shape of RBCs were also distorted (FIG. 7A, lower right panel, arrow marked). […] The presence of hypoxic cells is a hallmark of cancer (Brown, J. M., and Wilson, W. R. (2004) Nat. Rev. Cancer 4, 437-447; Minchinton, A. I., and Tannock, I. F. (2006) Nat. Rev. Cancer 6, 583-592). Cellular responses to hypoxia are triggered by the hypoxia inducible factor-1 alpha (HIF-1α) that is known to restore tissue homeostasis in hypoxic conditions (Semenza, G. L. (2000) Genes Dev. 14, 1983-1991). To determine the status of HIF-1α expression, immunohistochemical analysis was performed on tumor sections obtained from SM and P44 treated mice by using antibody against HIF-1 α. […] All these observations implicate the significance of P44 peptide in restoring tissue architecture in tumor cells and thus potentiates its role as a tumor regressor.
(§2) FIG. 7. Histopathological changes in B16F1-induced tumors. A, Hematoxylin and eosin staining of tumor sections excised from mice treated with either P44 (upper panel) or SM (lower panel) peptide. […] The images have been recorded at 20× and 40×. B, Immunohistochemistry of paraffin embedded tumor sections from P44 treated as well as, SM treated mice. After antigen unmasking, sections were stained with HIF-1α antibody (middle panel) and detected using Cy-3 conjugated mouse immunoglobulin. Sections were counterstained with DAP1 for nuclear localization (left panel). Right panel corresponds to the merged image.

[4] = system: HIF-1α; experiment: Immunohistochemical staining of tumor sections for HIF-1α; type: in vivo, mouse; conditions: tumors excised from treated mice
Excerpt: as §1, §2
Immunohistochemical staining of tumor sections: Tumor sections in paraffin-embedded blocks were transferred to poly-L-lysine coated glass slides and air-dried overnight at 37° C. They were dewaxed in xylene (three changes) and […] in graded series of decreasing ethanol concentrations. […] Thereafter, detected using cy-3 fluorescence labeled secondary antibody. […]

Sequence: YGRKKRRQRRR [TAT PTD, reference compound]
- tumor weight after excision [1]: 1.5 to 3 g
- phosphorylation of serine-15 residue of p53 [2]: no phosphorylation
- tumor vascular architecture (HE staining) [3]: poorly organized vascular architecture and compressed blood vessels
- HIF-1α expression in tumor sections [4]: increased expression of HIF-1α
